Laboratory results taken from ChEMBL document CHEMBL4433202, “Design and development of multitarget-directed N-Benzylpiperidine analogs as potential candidates for the treatment of Alzheimer's disease” (Eur J Med Chem, 2019).
Calls of active or inactive are those of the source. The calls are words filed in the database; no cut-off is given here.

How the values were obtained:
Acetylcholinesterase [1] = molecular target: T1, Acetylcholinesterase (Homo sapiens, UniProt P22303); assay: Inhibition of human erythrocyte acetylcholinesterase using acetylthiocholine iodide as substrate pre-incubated for 10 mins followed by substrate addition and measured for 6 mins by Ellman's method
Beta-secretase 1 = Beta-secretase 1 (Homo sapiens, UniProt P56817); assay: Inhibition of human BACE1 using as 7-Methoxycoumarin-4-acetyl-[Asn670, Leu671]-Amyloid beta/A4 precursor protein 770 fragment 667-676-(2,4-dinitrophenyl) Lys-Arg-Arg amide trifluoroacetate salt as substrate incubated for 2 hrs by FRET based florescence assay
Cholinesterase = Cholinesterase (Homo sapiens, UniProt P06276); assay: Inhibition of human serum butyrylcholinesterase using BTCI as substrate pre-incubated for 10 mins followed by substrate addition and measured for 6 mins by Ellman's method
Rattus norvegicus [2] = assay: Reversal of scopolamine-induced spatial memory impairment in Wistar rat model of amnesia assessed as decrease in time spent on open arms at 2.5 to 10 mg/kg, po administered once daily for 1 week followed by scopolamine challenge 30 mins prior to test by elevated plus maze test; format: functional, organism-based
[3] = Permeability of the compound at 25 ug/ml after 18 hrs by PAMPA-BBB assay
Rattus norvegicus [4] = assay: Reversal of scopolamine-induced spatial memory impairment in Wistar rat model of amnesia assessed as decrease in transfer latency at 2.5 to 10 mg/kg, po administered once daily for 1 week followed by scopolamine challenge 30 mins prior to test by elevated plus maze test; format: functional, organism-based
Rattus norvegicus [5] = assay: Antioxidant activity Wistar rat model of scopolamine-induced amnesia assessed as reduction in MDA levels in brain homogenates at 10 mg/kg, po by TBARS assay; format: functional, organism-based
[6] = Cytotoxicity against human SH-SY5Y cells assessed as cell viability at 10 to 80 uM after 48 hrs by MTT assay relative to control; format: cell-based; settings: read-out: Activity
Rattus norvegicus [7] = assay: Effect on total arm entries in scopolamine-induced spatial memory impairment in Wistar rat model of amnesia at 10 mg/kg, po administered once daily for 1 week followed by scopolamine challenge 30 mins prior to test by Y-maze test relative to control; format: functional, organism-based
Rattus norvegicus [8] = assay: Antioxidant activity Wistar rat model of scopolamine-induced amnesia assessed as increase in SOD levels in brain homogenates at 10 mg/kg, po by NBT dye based assay; format: functional, organism-based
[9] = Acute toxicity in Wistar rat assessed as induction of abnormal reactions at 100 to 500 mg/kg, po measured up to 14 days; format: organism-based; settings: in vivo, 336 h
Rattus norvegicus [10] = assay: In-vivo inhibition of scopolamine-induced acetylcholinesterase activity in Wistar rat brain homogenates using acetylthiocholine iodide as substrate at 10 mg/kg, po and measured for 6 mins by Ellman's method; format: functional, organism-based
[11] = Acute toxicity in Wistar rat at 100 to 500 mg/kg, po measured up to 14 days; format: organism-based; settings: in vivo, 336 h
[12] = MRT in Wistar rat at 10 mg/kg, po measured up to 0 to 72 hrs; format: ADME, organism-based; settings: in vivo
[13] = Elimination half life in Wistar rat at 10 mg/kg, po measured up to 0 to 72 hrs; format: ADME, organism-based; settings: in vivo, read-out: beta t1/2 (converted)
Acetylcholinesterase [14] = molecular target: T1, Acetylcholinesterase; assay: Non-competitive inhibition of human erythrocyte AChE using acetylthiocholine iodide as substrate preincubated for 10 mins followed by substrate addition and measured for 6 mins by Lineweaver-Burk plot analysis
[15] = molecular target: Amyloid-beta precursor protein (Homo sapiens) (UniProt P05067); assay: Inhibition of amyloid beta 1 to 42 (unknown origin) aggregation assessed as roughness index at 10 uM incubated for 7 days by AFM analysis
[16] = Cmax in Wistar rat at 10 mg/kg, po measured up to 0 to 72 hrs; format: ADME, organism-based; parameters: dose 10 mg/kg, route oral; settings: in vivo
[17] = Tmax in Wistar rat at 10 mg/kg, po measured up to 0 to 72 hrs; format: ADME, organism-based; settings: in vivo
Rattus norvegicus [18] = assay: Cognitive enhancing effect in Wistar rat model of amyloid beta (1 to 42) oligomer-induced memory impairment model assessed as escape latency time at 5 mg/kg, po for 9 days by Morris water maze test (reference value: 49.3 to 74 secs); format: functional
Acetylcholinesterase [19] = molecular target: T1, Acetylcholinesterase; assay: Non-competitive inhibition of human erythrocyte AChE using acetylthiocholine iodide as substrate preincubated for 10 mins followed by substrate addition and measured for 6 mins by Dixon plot analysis
Rattus norvegicus [20] = assay: Cognitive enhancing effect in Wistar rat model of amyloid beta (1 to 42) oligomer-induced memory impairment model assessed as escape latency time at 10 mg/kg, po for 9 days by Morris water maze test (reference value: 49.3 to 74 secs); format: functional, organism-based
Rattus norvegicus [21] = assay: Reversal of scopolamine-induced spatial memory impairment in Wistar rat model of amnesia assessed as increase in spontaneous alteration at 10 mg/kg, po administered once daily for 1 week followed by scopolamine challenge 30 mins prior to test by Y-maze test relative to control; format: functional, organism-based
[22] = molecular target: Amyloid-beta precursor protein (Homo sapiens) (UniProt P05067); assay: Inhibition of amyloid beta 1 to 42 (unknown origin) aggregation assessed as oligomer height at 10 uM incubated for 7 days by AFM analysis
[23] = AUC (0 to 24 hrs) in Wistar rat at 10 mg/kg, po; format: ADME, organism-based; parameters: dose 10 mg/kg, time < 24 hr, route oral; settings: in vivo
Rattus norvegicus [24] = assay: Cognitive enhancing effect in Wistar rat model of amyloid beta (1 to 42) oligomer-induced memory impairment model assessed as increase in number of platform crossings at 10 mg/kg, po for 9 days by Morris water maze test; format: functional, organism-based

T1 sequence (P22303 whole entry, the tested form may be a part): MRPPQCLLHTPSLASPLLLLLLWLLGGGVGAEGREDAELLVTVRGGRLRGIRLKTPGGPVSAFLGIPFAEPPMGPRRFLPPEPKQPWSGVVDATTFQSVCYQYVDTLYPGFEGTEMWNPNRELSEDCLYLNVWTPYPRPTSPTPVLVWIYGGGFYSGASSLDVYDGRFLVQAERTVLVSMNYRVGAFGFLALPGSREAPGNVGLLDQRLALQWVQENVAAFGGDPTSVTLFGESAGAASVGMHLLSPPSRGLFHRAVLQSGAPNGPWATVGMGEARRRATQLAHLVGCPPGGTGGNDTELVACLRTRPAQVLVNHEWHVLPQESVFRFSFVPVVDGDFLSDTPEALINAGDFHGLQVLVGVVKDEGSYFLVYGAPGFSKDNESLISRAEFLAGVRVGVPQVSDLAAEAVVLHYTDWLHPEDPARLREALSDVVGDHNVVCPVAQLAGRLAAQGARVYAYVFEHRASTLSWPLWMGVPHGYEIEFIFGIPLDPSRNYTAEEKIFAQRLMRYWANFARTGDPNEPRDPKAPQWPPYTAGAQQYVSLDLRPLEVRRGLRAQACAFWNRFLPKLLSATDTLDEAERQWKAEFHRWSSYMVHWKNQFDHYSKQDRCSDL
Cholinesterase, sequence (P06276 whole entry): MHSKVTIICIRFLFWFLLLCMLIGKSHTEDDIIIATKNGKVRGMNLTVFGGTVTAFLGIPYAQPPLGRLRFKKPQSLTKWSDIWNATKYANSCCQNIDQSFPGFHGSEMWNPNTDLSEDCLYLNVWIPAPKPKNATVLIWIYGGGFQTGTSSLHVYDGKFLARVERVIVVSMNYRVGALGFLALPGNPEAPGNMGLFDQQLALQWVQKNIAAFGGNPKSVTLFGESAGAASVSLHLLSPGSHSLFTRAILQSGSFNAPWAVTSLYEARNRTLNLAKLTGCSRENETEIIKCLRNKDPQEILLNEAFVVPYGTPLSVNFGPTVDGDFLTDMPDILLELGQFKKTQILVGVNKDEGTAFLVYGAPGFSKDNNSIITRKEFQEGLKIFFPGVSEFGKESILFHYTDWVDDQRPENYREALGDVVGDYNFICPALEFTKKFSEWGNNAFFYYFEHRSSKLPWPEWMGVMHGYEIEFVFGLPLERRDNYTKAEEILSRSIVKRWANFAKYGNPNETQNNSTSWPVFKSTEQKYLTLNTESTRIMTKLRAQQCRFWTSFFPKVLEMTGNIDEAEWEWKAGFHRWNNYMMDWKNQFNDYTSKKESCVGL
Beta-secretase 1, sequence (P56817 whole entry, the tested form may be a part): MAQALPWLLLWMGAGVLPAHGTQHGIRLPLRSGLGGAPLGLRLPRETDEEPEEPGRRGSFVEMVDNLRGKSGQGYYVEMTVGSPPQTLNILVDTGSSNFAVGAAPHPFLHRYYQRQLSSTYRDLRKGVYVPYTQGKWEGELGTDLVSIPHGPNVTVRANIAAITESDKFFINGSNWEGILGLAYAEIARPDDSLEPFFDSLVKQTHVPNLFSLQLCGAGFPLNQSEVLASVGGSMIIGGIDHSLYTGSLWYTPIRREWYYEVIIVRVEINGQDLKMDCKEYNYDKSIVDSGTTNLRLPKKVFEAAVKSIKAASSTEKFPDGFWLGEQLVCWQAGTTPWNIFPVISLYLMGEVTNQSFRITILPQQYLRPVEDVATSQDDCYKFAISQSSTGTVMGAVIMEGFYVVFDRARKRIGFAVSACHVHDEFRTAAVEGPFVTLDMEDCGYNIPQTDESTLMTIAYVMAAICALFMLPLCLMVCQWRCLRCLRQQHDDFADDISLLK
Amyloid-beta precursor protein (Homo sapiens), sequence (P05067 whole entry): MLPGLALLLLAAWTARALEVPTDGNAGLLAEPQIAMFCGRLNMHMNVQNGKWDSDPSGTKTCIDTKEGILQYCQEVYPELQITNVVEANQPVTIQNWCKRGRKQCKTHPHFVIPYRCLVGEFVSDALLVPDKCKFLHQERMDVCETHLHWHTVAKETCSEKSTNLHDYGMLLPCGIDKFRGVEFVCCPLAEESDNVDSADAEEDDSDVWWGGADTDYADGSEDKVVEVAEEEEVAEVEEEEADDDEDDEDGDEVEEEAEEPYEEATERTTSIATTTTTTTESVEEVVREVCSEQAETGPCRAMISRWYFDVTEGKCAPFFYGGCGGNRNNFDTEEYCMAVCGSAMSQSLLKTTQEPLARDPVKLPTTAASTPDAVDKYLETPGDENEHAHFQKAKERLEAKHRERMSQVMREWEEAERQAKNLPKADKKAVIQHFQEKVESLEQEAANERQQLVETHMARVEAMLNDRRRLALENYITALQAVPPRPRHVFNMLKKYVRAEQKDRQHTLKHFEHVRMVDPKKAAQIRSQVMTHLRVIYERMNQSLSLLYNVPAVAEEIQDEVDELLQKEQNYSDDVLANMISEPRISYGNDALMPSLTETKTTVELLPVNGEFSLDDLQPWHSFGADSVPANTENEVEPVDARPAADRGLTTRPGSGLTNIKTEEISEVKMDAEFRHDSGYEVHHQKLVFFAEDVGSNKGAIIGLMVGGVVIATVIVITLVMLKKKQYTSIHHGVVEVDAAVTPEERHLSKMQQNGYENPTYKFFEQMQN

## COc1cc(CNC2CCN(Cc3ccccc3)CC2)cc(OC)c1OC
Acetylcholinesterase [1]
  IC50: 2.2 µM
Beta-secretase 1
  IC50: 13 µM
Cholinesterase
  IC50: 11 µM

## Oc1ccccc1/C=N/C1CCN(Cc2ccccc2)CC1
Acetylcholinesterase [1]
  IC50: 2.8 µM
Beta-secretase 1
  IC50: 2.7 µM
Cholinesterase
  IC50: 16 µM

## O=[N+]([O-])c1ccc(CNC2CCN(Cc3ccccc3)CC2)cc1
Rattus norvegicus [2]
  Activity: Active
[3]
  Papp at 18 h, 25 ug/ml: 4.41 ×10⁻⁶ cm/s
Rattus norvegicus [4]
  Activity: Active
Rattus norvegicus [5]
  Activity: Active
[6]
  viability at 48 h, up to 80 µM: 76.3 to 96.3%
Acetylcholinesterase [1]
  IC50: 0.72 µM
Beta-secretase 1
  IC50: 0.43 µM
Rattus norvegicus [7]
  Activity: inactive
Rattus norvegicus [8]
  Activity: Active
[9]
  Activity: Non-Toxic
Cholinesterase
  IC50: 7.8 µM
Rattus norvegicus [10]
  inhibition: Active
[11]
  Activity: Non-Toxic

## FC(F)(F)c1ccc(CNC2CCN(Cc3ccccc3)CC2)cc1
[12]
  MRT: 45.7 h
Rattus norvegicus [2]
  Activity: Active
[13]
  half-life: 29.2 h
[3]
  Papp at 18 h, 25 ug/ml: 6.09 ×10⁻⁶ cm/s
Acetylcholinesterase [14]
  inhibition: Active
[15]
  Activity: 1.7 to 4.4 nm
[16]
  Cmax: 32.8 ng/mL
Rattus norvegicus [4]
  Activity: Active
Rattus norvegicus [5]
  Activity: Active
[17]
  Tmax: 5.3 h
[6]
  viability at 48 h, up to 80 µM: 84.6 to 99.2%
Acetylcholinesterase [1]
  IC50: 0.11 µM
Beta-secretase 1
  IC50: 0.22 µM
Rattus norvegicus [7]
  Activity: inactive
Rattus norvegicus [18]
  Time: 20.3 to 74.5 s
Rattus norvegicus [8]
  Activity: Active
[9]
  Activity: Non-Toxic
Cholinesterase
  IC50: 3 µM
Acetylcholinesterase [19]
  Ki: 0.1 µM
Rattus norvegicus [20]
  Activity: Active
Rattus norvegicus [10]
  inhibition: Active
Rattus norvegicus [21]
  Activity: Active
[11]
  Activity: Non-Toxic
[22]
  Activity: 44.5 to 104 nm
[23]
  AUC(0-t) at 24 h: 633 ng·h/mL
Rattus norvegicus [24]
  Activity: Active

## C(=N\C1CCN(Cc2ccccc2)CC1)/c1ccccc1
Acetylcholinesterase [1]
  IC50: 2.1 µM
Beta-secretase 1
  IC50: 3.4 µM
Cholinesterase
  IC50: > 30 µM

## Oc1ccc(/C=N/C2CCN(Cc3ccccc3)CC2)cc1
Acetylcholinesterase [1]
  IC50: 4.8 µM
Beta-secretase 1
  IC50: 12 µM
Cholinesterase
  IC50: > 30 µM

## Clc1ccc(/C=N/C2CCN(Cc3ccccc3)CC2)c(Cl)c1
Acetylcholinesterase [1]
  IC50: 1.3 µM
Beta-secretase 1
  IC50: 3.9 µM
Cholinesterase
  IC50: 5.8 µM

## Clc1ccc(/C=N/C2CCN(Cc3ccccc3)CC2)cc1
Acetylcholinesterase [1]
  IC50: 1.5 µM
Beta-secretase 1
  IC50: 1.7 µM
Cholinesterase
  IC50: 4.6 µM

## Oc1ccccc1CNC1CCN(Cc2ccccc2)CC1
Acetylcholinesterase [1]
  IC50: 2.4 µM
Beta-secretase 1
  IC50: 2 µM
Cholinesterase
  IC50: 14 µM

## O=[N+]([O-])c1ccc(/C=N/C2CCN(Cc3ccccc3)CC2)cc1
[3]
  Papp at 18 h, 25 ug/ml: 4.99 ×10⁻⁶ cm/s
Acetylcholinesterase [1]
  IC50: 0.9 µM
Beta-secretase 1
  IC50: 0.73 µM
Cholinesterase
  IC50: 7.3 µM

## c1ccc(CNC2CCN(Cc3ccccc3)CC2)cc1
Acetylcholinesterase [1]
  IC50: 1.7 µM
Beta-secretase 1
  IC50: 2.9 µM
Cholinesterase
  IC50: 12 µM

## FC(F)(F)Oc1ccc(CNC2CCN(Cc3ccccc3)CC2)cc1
Acetylcholinesterase [1]
  IC50: 0.59 µM
Beta-secretase 1
  IC50: 1.4 µM
Cholinesterase
  IC50: 3.5 µM

## Fc1ccc(/C=N/C2CCN(Cc3ccccc3)CC2)c(F)c1
Acetylcholinesterase [1]
  IC50: 1.3 µM
Beta-secretase 1
  IC50: 3.5 µM
Cholinesterase
  IC50: > 30 µM

## Cc1ccc(CNC2CCN(Cc3ccccc3)CC2)cc1
Acetylcholinesterase [1]
  IC50: 3.7 µM
Beta-secretase 1
  IC50: 17 µM
Cholinesterase
  IC50: > 30 µM

## COc1cc2c(cc1OC)C(=O)C(CC1CCN(Cc3ccccc3)CC1)C2 (stereo unspecified) [DONEPEZIL]
Rattus norvegicus [18]
  Time: 22.5 to 72.5 s

## Clc1ccc(CNC2CCN(Cc3ccccc3)CC2)cc1
Acetylcholinesterase [1]
  IC50: 0.85 µM
Beta-secretase 1
  IC50: 0.66 µM
Cholinesterase
  IC50: 4 µM

## Fc1ccc(CNC2CCN(Cc3ccccc3)CC2)c(F)c1
Acetylcholinesterase [1]
  IC50: 0.71 µM
Beta-secretase 1
  IC50: 2.9 µM
Cholinesterase
  IC50: 3.1 µM

## Fc1ccc(/C=N/C2CCN(Cc3ccccc3)CC2)cc1
Acetylcholinesterase [1]
  IC50: 2.9 µM
Beta-secretase 1
  IC50: 1.5 µM
Cholinesterase
  IC50: > 30 µM

## Oc1ccc(/C=N/C2CCN(Cc3ccccc3)CC2)c(O)c1
Acetylcholinesterase [1]
  IC50: 2.6 µM
Beta-secretase 1
  IC50: 10 µM
Cholinesterase
  IC50: 19 µM

## Oc1ccc(CNC2CCN(Cc3ccccc3)CC2)cc1
Acetylcholinesterase [1]
  IC50: 4 µM
Beta-secretase 1
  IC50: 9.9 µM
Cholinesterase
  IC50: > 30 µM

## Cc1cccc(CNC2CCN(Cc3ccccc3)CC2)c1
Acetylcholinesterase [1]
  IC50: 4.1 µM
Beta-secretase 1
  IC50: 2.6 µM
Cholinesterase
  IC50: > 30 µM

## COc1cccc(CNC2CCN(Cc3ccccc3)CC2)c1OC
Acetylcholinesterase [1]
  IC50: 2.2 µM
Beta-secretase 1
  IC50: 5.3 µM
Cholinesterase
  IC50: 7.2 µM

## Cc1cccc(/C=N/C2CCN(Cc3ccccc3)CC2)c1
Acetylcholinesterase [1]
  IC50: > 15 µM
Beta-secretase 1
  IC50: 3.3 µM
Cholinesterase
  IC50: > 30 µM

## Cc1ccc(/C=N/C2CCN(Cc3ccccc3)CC2)cc1
Acetylcholinesterase [1]
  IC50: 4.4 µM
Beta-secretase 1
  IC50: 19 µM
Cholinesterase
  IC50: > 30 µM

## Oc1ccc(CNC2CCN(Cc3ccccc3)CC2)c(O)c1
Acetylcholinesterase [1]
  IC50: 2.3 µM
Beta-secretase 1
  IC50: 5.9 µM
Cholinesterase
  IC50: 18 µM

## FC(F)(F)Oc1ccc(/C=N/C2CCN(Cc3ccccc3)CC2)cc1
Acetylcholinesterase [1]
  IC50: 1 µM
Beta-secretase 1
  IC50: 1.8 µM
Cholinesterase
  IC50: 5.5 µM

## COc1cc(/C=N/C2CCN(Cc3ccccc3)CC2)cc(OC)c1OC
Acetylcholinesterase [1]
  IC50: > 15 µM
Beta-secretase 1
  IC50: 14 µM
Cholinesterase
  IC50: 11 µM

## COc1cccc(/C=N/C2CCN(Cc3ccccc3)CC2)c1OC
Acetylcholinesterase [1]
  IC50: > 15 µM
Beta-secretase 1
  IC50: 6.3 µM
Cholinesterase
  IC50: > 30 µM

## FC(F)(F)c1ccc(/C=N/C2CCN(Cc3ccccc3)CC2)cc1
[3]
  Papp at 18 h, 25 ug/ml: 6.24 ×10⁻⁶ cm/s
Acetylcholinesterase [1]
  IC50: 0.44 µM
Beta-secretase 1
  IC50: 0.28 µM
Cholinesterase
  IC50: 3.9 µM

## Fc1ccc(CNC2CCN(Cc3ccccc3)CC2)cc1
Acetylcholinesterase [1]
  IC50: 1.2 µM
Beta-secretase 1
  IC50: 0.55 µM
Cholinesterase
  IC50: 3.9 µM

## Clc1ccc(CNC2CCN(Cc3ccccc3)CC2)c(Cl)c1
Acetylcholinesterase [1]
  IC50: 0.62 µM
Beta-secretase 1
  IC50: 3 µM
Cholinesterase
  IC50: 3.5 µM
